Assay [1] concerns the target T1, human recombinant ETA receptors (Homo sapiens, UniProt P25101).
T1 construct: expressed in transfected cells; host or cells: CHO cells (microsomal membranes)
T1 sequence (P25101 21-427): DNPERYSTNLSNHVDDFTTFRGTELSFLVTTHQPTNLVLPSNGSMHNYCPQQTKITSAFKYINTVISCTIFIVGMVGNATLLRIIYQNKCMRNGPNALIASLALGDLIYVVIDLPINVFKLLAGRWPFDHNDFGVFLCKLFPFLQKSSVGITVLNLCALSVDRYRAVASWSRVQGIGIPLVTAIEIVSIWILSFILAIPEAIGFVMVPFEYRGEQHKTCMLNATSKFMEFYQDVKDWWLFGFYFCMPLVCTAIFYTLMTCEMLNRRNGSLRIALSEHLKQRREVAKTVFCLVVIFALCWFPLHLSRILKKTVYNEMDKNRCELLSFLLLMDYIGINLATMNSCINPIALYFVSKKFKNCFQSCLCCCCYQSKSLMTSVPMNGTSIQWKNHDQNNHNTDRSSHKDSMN
As to the kind of experiment: Inhibition of endothelin binding to membranes from CHO cells carrying human ET receptors (ETA).

For assay [2], the target named is T2, human recombinant ETB receptors (Homo sapiens, UniProt P24530).
T2 construct: expressed in transfected cells; host or cells: CHO cells (microsomal membranes)
T2 sequence (P24530 27-442): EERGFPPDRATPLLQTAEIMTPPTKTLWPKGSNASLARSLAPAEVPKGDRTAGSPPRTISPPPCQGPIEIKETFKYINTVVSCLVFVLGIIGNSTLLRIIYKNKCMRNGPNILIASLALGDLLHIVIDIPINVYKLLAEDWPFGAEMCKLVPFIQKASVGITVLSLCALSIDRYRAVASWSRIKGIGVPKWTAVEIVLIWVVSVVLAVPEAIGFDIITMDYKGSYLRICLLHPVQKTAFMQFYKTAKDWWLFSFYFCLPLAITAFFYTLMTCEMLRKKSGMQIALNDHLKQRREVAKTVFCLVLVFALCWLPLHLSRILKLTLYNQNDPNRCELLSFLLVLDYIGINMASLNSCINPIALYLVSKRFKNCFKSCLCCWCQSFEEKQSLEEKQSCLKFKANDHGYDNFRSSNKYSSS
In words: Inhibition of endothelin binding to membranes from CHO cells carrying human ET receptors (ETB).

The next assay addresses T3, ETA receptors (Rattus norvegicus, UniProt P26684).
T3 sequence (P26684 21-426): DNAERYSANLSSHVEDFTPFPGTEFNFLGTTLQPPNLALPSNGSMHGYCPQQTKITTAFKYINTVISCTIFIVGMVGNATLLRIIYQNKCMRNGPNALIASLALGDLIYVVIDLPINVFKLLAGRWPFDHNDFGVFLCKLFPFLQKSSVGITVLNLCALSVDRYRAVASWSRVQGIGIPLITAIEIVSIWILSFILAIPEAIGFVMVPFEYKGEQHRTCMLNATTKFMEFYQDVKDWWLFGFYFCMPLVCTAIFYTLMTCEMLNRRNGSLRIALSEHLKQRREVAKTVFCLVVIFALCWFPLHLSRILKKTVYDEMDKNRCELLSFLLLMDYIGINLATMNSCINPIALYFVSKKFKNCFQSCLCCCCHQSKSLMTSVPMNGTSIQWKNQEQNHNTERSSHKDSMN
In words: Inhibition of endothelin-1-induced contractions on isolated rat aortic rings. The following applies: rat aortic rings, contraction induced by endothelin-1, 10 min incubation.

The target of the next assay is T4, ETB receptors (Rattus norvegicus, UniProt P21451).
T4 sequence (P21451 27-442): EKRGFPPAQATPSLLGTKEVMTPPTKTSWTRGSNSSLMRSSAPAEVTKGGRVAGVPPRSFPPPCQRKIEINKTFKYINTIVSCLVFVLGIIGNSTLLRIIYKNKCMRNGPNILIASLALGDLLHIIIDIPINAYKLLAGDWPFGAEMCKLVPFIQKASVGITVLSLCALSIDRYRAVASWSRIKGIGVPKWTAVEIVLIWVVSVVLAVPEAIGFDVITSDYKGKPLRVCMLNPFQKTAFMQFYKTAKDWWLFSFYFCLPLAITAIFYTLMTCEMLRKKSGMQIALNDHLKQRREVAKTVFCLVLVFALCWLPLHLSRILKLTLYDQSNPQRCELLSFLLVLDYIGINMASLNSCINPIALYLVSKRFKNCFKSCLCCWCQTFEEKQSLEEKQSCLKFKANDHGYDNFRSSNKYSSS
As to the kind of experiment: Inhibition of sarafotoxin S6c-induced contractions on isolated rat tracheal rings. To be noted: rat tracheal rings, contraction induced by sarafotoxin S6c, 10 min incubation.

Each structure is given as a SMILES string.

Regarding `CCCS(=O)(=O)NCCOc1nc(N2CCOCC2)nc(NS(=O)(=O)c2ccc(C)cn2)c1Oc1ccccc1OC` [Example 59, 5-methyl-N-[6-(2-(1-propanesulfonylamino)-ethoxy)-5-(o-methoxyphenoxy)-2-(N-morpholino)-4-pyrimidinyl]-2-pyridine sulfonamide], the values for the IC50 in assay [1] and in assay [2] were 103 nM and 189 nM, respectively. Moreover, at ETA receptors, the “pA2 value ETA” value is 6.61. The “pA2 value ETB” value on ETB receptors is 5.58.

The values above are taken from US6596719B1 (Actelio Pharmaceuticals Ltd., priority 1999, dated 2003).
